Test results: patent publication US20230210861A1 (priority 2020, published 2023)
Where “and” joins values, the source holds several entries; their conditions need not be identical. Equal entries are not always repeated. Entries after “also recorded” stand apart in the source; their conditions may differ. Structures can show the parent of a compound that is named as a salt.

Assays:
[1] = target: nAChR subtype alpha6beta2 (Homo sapiens, UniProt P17787+Q15825); conditions: in words; no experiment described; cited from earlier work
[2] = target: T1, human alpha4beta2 nAChR (Homo sapiens, UniProt P17787+P43681); assay: Agonist activity at human alpha4beta2 nAChR expressed in Xenopus oocytes (two-electrode voltage clamp); format: cell-based; conditions: for agonist character at nAChR alpha4beta2: in words; for effect on the subsequent ACh-evoked current, alpha4beta2: after the agonist concentration series
Description: (§1) Agonist Preparation: See Example 1.

[3] = target: human alpha4alpha6beta2 nAChR (Homo sapiens, UniProt P17787+P43681+Q15825); assay: Agonist activity at human alpha4alpha6beta2 nAChR expressed in Xenopus oocytes (two-electrode voltage clamp); format: cell-based; conditions: for agonist character at nAChR alpha4alpha6beta2: in words
Description: as §1

[4] = target: T2, human alpha3alpha5beta4 nAChR (Homo sapiens, UniProt P30926+P32297); assay: Agonist activity at human alpha3alpha5beta4 nAChR expressed in Xenopus oocytes (two-electrode voltage clamp); conditions: for agonist character at nAChR alpha3alpha5beta4: in words; for EC50: EC50 at nAChR alpha3alpha5beta4, test concentrations 0.1-300 uM
Description: (§2) All experiments were carried out at human nAChRs expressed in Xenopus oocytes using the method of cDNA expression. Xenopus oocytes were prepared and injected using standard procedures.
Briefly, ovaries were harvested from Xenopus Laevis females that have been deeply anesthetized by cooling at 4° C. and Tricaine methanesulfonate (MS-222 at a concentration of 150 mg/L) in sodium bicarbonate (300 mg/L). Once anesthetized the animal was decapitated and pithed following the rules of animal rights from the Geneva canton. A small piece of ovary was isolated for immediate preparation while the remaining part was placed at 4° C. in a sterile Barth solution containing in mM NaCl 88, KCl 1, NaHCO3 2.4, HEPES 10, MgSO4·7H2O 0.82, Ca(NO3)2·4H2O 0.33, CaCl2·6H2O 0.41, at pH 7.4, and supplemented with 20 ug/ml of kanamycin, 100 unit/ml penicillin. All recordings were performed at 18° C. and cells superfused with OR2 medium containing in mM: NaCl 88, KCl 2.5, HEPES 5, CaCl2·2H2O 1.8, MgCl2·6H2O 1, pH 7.4.
(§3) Currents evoked by ACh or other agonists were recorded using an automated process equipped with standard two-electrode voltage-clamp configuration (TEVC). Data were captured and analyzed using a HiQScreen proprietary data acquisition and analysis software running under Matlab (Mathworks Inc.).
ACh was prepared as a concentrated stock solution (10^−1M) in water and then diluted in the recording medium to obtain the desired test concentration. Compounds were dissolved in OR2 as stock solution (1 mM) and the final dilution to the desired concentration was made on the day of the experiment. OR2 medium contains in mM: NaCl 88.5, KCl 2.5, HEPES 5, CaCl2·2H2 1.8, MgCl2·6H2 1, pH 7.4.
The test concentration of acetylcholine chloride was 1280 uM.
(§4) Injections of cDNAs encoding for the human alpha3beta4, alpha3alpha5beta4, alpha4beta2, and alpha7 were performed in at least 95 oocytes were performed using a proprietary automated injection and receptor expression examined at least two days later. Oocytes were poked with two electrodes and their membrane potential maintained, unless indicated, at −80 mV throughout the experiment.
A protocol to determine agonistic activity in the oocytes expressing the nAChRs was developed. The cells were exposed to a series of increasing concentrations of a compound agonist for 10 seconds each at two minute intervals. The current evoked from exposure to the agonist at each concentration was recorded. For oocytes expressing alpha7 nAChRs, exposure to the agonist was reduced to 5 seconds. This process was repeated for each agonist tested against each type of nAChR expressing cell.
Experimental Procedures: Injections of cDNAs encoding for the human alpha3beta4, alpha3alpha5beta4, alpha4beta2, alpha4alpha6beta2, and alpha7 were performed in at least 95 oocytes using a proprietary automated injection device. Cellular receptor expression was examined at least two days later. Oocytes were poked with two electrodes and their membrane potential maintained, unless indicated, at −80 mV throughout the experiment.
A protocol to determine agonistic activity in the oocytes expressing the nAChRs was developed. Oocytes expressing a nAChR subtype were exposed to a brief test pulse of acetylcholine (1280 uM) while the holding current and response was evaluated. Cells displaying robust currents were washed for 90 seconds. The cells were then exposed to a series of increasing concentrations of a nAChR agonist for 10 seconds each at two minute intervals. The nAChR agonist test concentrations were 0.1, 0.3, 1, 3, 10, 30, 100, 300 (uM). The current evoked from exposure to the agonist at each concentration was recorded.

[5] = target: T3, human alpha7 nAChR (Homo sapiens, UniProt P36544); assay: Agonist activity at human alpha7 nAChR expressed in Xenopus oocytes (two-electrode voltage clamp); format: cell-based; conditions: for agonist character at nAChR alpha7: in words
Description: as §1

[6] = target: T4, human alpha3beta4 nAChR (Homo sapiens, UniProt P30926+P32297); assay: Agonist activity at human alpha3beta4 nAChR expressed in Xenopus oocytes (two-electrode voltage clamp); format: cell-based; conditions: for agonist character at nAChR alpha3beta4: in words
Description: as §1

[7] = Pharmacokinetics in human subjects after 28 days of intranasal administration of Compound 1 hemigalactarate salt (Example 5); format: in vivo
Description: Blood plasma for the patients was collected on Day 29 predose (time 0) and after a series of time points (10 min, 20 min, 30 min, 1 hr, 2 hrs, 4 hrs, 5 hrs, 6 hrs, 7 hrs, 8 hrs, and 24 hrs) after a single administration of drug. The blood plasma was analyzed for Compound 1.
The following pharmacokinetic parameters for Compound 1 were calculated: • Cmax: Maximum observed concentration, observed by inspection of individual study participant plasma concentration time plots. • Tmax: Time of maximum observed concentration, obtained directly from the observed concentration time data. • AUClast: The area under the plasma concentration time curve, from time 0 to the last measurable non-zero concentration, calculated by a combination of linear and logarithmic trapezoidal methods (Linear up/log down method). • AUC0-4 h: The area under the plasma concentration time curve, from time 0 to the 4 h time point, calculated by a combination of linear and logarithmic trapezoidal methods (Linear up/log down method). • AUCinf: The area from zero time (pre-dose) extrapolated to infinite time (AUCinf) will be calculated as follows: AUCinf=AUClast+Cz/λz • AUC % Extrap: The percentage of AUCinf obtained by extrapolation (AUC % Extrap) will be calculated as follows: […]

[8] = target: nAChR subtype alpha3beta2 (Homo sapiens, UniProt P17787+P32297); conditions: in words; no experiment described; cited from earlier work
[9] = test system: Caco-2 cells; assay: Caco-2 cell viability, CellTiter-Glo assay; format: cell-based, human
Description: In parallel, cell viability in the presence of varenicline tartrate and/or copper chloride was determined using CellTiter-Glo assay (Promega), which measures intracellular adenosine triphosphate levels.
Cells treated with DMSO (solvent control) served as controls. Following incubation, […] of CellTiter-Glo substrate was added to each well and the samples were incubated for 10 min on a rocking platform. Following this 10 min incubation, luminescence was recorded using a POLAR star OPTIMA plate reader (BMG Labtech). Samples were run in triplicate and data is normalized with mean luminescence of DMSO only treated cells as 100% viability.
All statistical analyses were performed using GraphPad Prism (version 9, GraphPad Software, Inc.).

[10] = test system: SARS-CoV-2; assay: Infection of Caco-2 cells after exposure to SARS-CoV-2 (plaque titration of supernatant); conditions: for percentage of Caco-2 cells infected with SARS-CoV-2, concentration dependence: 24 hours after exposure, MOI of 3, versus vehicle control, in words
[11] = target: T4, human alpha3beta4 nAChR; assay: Desensitization / antagonistic activity, cumulative exposure in the low concentration range, alpha3beta4 in Xenopus oocytes; format: cell-based; conditions: concentrations up to 300 nM, in words
[12] = target: T4, human alpha3beta4 nAChR; assay: Sustained exposure to 300 uM varenicline tartrate and its recovery, alpha3beta4; format: cell-based; conditions: 300 uM applied during three minutes; in words
[13] = target: T3, human alpha7 nAChR; assay: Desensitization / antagonistic activity, cumulative exposure in the low concentration range, alpha7 in Xenopus oocytes; format: cell-based; conditions: concentrations up to 300 nM; in words; dihydrate
Description: as §2, §3, §4

[14] = target: T1, human alpha4beta2 nAChR; assay: Desensitization / antagonistic activity, cumulative exposure in the low concentration range, alpha4beta2 in Xenopus oocytes; format: cell-based; conditions: concentrations up to 300 nM; in words; dihydrate
[15] = target: T2, human alpha3alpha5beta4 nAChR; assay: Desensitization / antagonistic activity, cumulative exposure in the low concentration range, alpha3alpha5beta4 in Xenopus oocytes; format: cell-based; conditions: concentrations up to 300 nM; in words; dihydrate
[16] = listed as Compound 1 citrate, mono-citrate
[17] = test concentrations 0.1-300 uM, ACh 1280 uM reference
[18] = listed as Compound 1 hemi-galactarate dihydrate, dihydrate

Chain of human alpha4alpha6beta2 nAChR (P43681 29-627 limits assumed): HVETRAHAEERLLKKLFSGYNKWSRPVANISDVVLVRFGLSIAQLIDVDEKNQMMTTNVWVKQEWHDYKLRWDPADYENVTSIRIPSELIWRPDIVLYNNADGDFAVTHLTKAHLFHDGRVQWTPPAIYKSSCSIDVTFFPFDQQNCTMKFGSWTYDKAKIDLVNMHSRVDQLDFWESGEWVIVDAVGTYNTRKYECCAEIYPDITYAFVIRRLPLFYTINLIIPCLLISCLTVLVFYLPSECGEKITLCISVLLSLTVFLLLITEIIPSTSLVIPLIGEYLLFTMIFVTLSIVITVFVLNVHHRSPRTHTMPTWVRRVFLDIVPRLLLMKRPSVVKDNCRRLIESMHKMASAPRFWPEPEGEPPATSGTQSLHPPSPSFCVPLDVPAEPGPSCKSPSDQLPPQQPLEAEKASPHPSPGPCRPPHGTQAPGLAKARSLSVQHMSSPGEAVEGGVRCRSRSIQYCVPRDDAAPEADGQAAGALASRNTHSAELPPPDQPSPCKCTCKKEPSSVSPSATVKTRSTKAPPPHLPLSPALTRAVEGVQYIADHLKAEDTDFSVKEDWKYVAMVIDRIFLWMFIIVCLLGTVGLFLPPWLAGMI
Chain of human alpha4alpha6beta2 nAChR (Q15825 26-494): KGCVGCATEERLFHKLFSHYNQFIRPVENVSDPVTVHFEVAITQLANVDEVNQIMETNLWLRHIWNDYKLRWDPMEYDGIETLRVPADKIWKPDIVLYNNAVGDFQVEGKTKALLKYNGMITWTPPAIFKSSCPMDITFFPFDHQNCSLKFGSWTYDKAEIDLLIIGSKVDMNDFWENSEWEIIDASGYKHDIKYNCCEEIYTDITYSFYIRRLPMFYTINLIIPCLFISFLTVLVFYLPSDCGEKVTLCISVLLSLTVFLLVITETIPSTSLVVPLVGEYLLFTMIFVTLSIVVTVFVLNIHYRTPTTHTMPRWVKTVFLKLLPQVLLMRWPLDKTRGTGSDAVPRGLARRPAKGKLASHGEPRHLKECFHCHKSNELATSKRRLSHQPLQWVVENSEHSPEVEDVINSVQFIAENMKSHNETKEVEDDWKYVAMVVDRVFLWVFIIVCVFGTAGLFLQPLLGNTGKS
Chain of human alpha4alpha6beta2 nAChR (P17787 26-502): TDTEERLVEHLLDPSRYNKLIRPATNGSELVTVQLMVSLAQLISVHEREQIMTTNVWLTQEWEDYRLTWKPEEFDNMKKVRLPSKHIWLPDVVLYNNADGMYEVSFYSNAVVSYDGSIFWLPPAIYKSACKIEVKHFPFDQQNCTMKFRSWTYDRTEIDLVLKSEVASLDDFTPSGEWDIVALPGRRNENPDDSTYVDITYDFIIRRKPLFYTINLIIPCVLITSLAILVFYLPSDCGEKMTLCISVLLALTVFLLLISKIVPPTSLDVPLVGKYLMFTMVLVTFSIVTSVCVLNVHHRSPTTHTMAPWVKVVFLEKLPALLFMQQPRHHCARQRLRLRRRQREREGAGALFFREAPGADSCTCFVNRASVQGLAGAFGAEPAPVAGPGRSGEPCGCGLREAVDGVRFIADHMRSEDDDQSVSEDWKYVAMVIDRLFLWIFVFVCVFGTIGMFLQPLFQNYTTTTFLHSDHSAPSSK
T1 sequence (P43681 29-627 limits assumed): as the sequence (P43681 29-627 limits assumed) above
T1 sequence (P17787 26-502): as the sequence (P17787 26-502) above
T2 sequence (P32297 32-505): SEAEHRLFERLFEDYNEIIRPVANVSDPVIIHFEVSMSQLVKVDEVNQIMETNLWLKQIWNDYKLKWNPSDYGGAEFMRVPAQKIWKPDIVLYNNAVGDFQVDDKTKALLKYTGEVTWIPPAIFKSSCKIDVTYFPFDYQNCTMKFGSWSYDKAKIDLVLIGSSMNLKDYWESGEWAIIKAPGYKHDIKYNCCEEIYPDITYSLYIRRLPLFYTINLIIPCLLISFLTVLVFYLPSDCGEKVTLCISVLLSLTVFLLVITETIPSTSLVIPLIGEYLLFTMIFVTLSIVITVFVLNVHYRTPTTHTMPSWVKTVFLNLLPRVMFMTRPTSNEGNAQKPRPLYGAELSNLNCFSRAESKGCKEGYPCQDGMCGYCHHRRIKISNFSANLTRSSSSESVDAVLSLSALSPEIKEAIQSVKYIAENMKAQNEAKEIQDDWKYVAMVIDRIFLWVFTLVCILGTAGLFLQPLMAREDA
T2 sequence (P30532 23-468 partner): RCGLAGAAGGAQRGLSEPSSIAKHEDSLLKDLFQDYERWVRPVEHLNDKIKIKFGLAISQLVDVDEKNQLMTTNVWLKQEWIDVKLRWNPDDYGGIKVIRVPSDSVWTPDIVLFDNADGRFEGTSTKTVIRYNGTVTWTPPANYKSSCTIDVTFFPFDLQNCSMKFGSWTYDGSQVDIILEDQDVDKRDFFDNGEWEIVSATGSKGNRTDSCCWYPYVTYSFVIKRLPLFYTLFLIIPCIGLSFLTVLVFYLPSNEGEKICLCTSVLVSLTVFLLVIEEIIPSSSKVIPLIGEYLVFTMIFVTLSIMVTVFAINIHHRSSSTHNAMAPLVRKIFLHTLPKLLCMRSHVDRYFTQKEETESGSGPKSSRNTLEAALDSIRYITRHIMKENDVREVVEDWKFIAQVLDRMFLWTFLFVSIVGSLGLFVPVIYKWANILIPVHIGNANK
T2 sequence (P30926 22-498): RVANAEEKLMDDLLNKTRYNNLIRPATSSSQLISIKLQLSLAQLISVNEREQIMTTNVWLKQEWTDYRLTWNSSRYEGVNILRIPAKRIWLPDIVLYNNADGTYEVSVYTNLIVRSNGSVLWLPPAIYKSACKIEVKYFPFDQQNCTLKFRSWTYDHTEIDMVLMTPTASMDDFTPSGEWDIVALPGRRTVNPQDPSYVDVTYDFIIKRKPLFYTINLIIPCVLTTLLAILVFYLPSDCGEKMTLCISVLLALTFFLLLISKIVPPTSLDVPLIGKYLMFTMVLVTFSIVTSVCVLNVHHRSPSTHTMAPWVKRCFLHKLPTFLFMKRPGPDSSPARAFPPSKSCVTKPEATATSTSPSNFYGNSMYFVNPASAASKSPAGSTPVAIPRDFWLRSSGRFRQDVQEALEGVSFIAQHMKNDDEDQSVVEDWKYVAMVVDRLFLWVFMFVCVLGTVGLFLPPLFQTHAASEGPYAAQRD
T4 sequence (P32297 32-505): as the sequence (P32297 32-505) above
T4 sequence (P30926 22-498): as the sequence (P30926 22-498) above
T3 sequence (P36544 23-502): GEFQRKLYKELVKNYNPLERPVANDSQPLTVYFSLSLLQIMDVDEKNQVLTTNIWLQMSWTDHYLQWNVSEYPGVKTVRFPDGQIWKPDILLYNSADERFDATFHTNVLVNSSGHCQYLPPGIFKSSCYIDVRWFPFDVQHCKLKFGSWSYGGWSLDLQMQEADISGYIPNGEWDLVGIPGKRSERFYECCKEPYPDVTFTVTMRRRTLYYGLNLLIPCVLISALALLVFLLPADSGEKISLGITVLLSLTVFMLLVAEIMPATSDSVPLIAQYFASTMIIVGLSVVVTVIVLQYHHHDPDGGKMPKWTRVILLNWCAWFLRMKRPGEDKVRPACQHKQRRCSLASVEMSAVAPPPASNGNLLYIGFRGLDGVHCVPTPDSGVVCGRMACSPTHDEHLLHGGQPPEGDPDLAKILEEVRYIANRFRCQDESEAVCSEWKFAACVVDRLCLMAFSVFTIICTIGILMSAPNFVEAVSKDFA
Chain of nAChR subtype alpha6beta2 (Q15825 26-494): as the sequence (Q15825 26-494) above
Chain of nAChR subtype alpha6beta2 (P17787 26-502): as the sequence (P17787 26-502) above
Chain of nAChR subtype alpha3beta2 (P32297 32-505): as the sequence (P32297 32-505) above
Chain of nAChR subtype alpha3beta2 (P17787 26-502): as the sequence (P17787 26-502) above

In the case of `c1cnc2cc3c(cc2n1)[C@@H]1CNC[C@H]3C1` [varenicline], the “agonist character at nAChR alpha6beta2” value [1] is listed as “partial agonist”, the “agonist character at nAChR alpha4beta2” value [2] is listed as “partial agonist” and the “effect on the subsequent ACh-evoked current, alpha4alpha6beta2” value ([3]; after the agonist concentration series) is listed as “significant inhibition of the subsequent ACh-evoked current”. The “response compared to the ACh response, alpha4alpha6beta2” value ([3]; concentrations from 0.1 uM to 300 uM) was at most 6%, the “agonist character at nAChR alpha4alpha6beta2” value [3] was “weak partial agonist” and the “agonist character at nAChR alpha3alpha5beta4” value [4] was “partial agonist”. For the same molecule, the “agonist character at nAChR alpha7” value [5] was “full agonist” and the “agonist character at nAChR alpha3beta4” value [6] was “partial agonist”.
For `C(=C\[C@H]1CCNC1)/c1cncnc1` [compound 1 citrate, (R)-5-((E)pyrrolidin-3-ylvinyl)pyrimidine mono-citrate], the “effect on the subsequent ACh-evoked current, alpha4beta2” value (from here on “effect … alpha4beta2”) ([2]; mono-citrate) was “Significant inhibition of the current evoked by the second Ach exposure”, the “agonist character at nAChR alpha4beta2” value [2, 16] was “almost as a full agonist” and the “agonist character at nAChR alpha4alpha6beta2” value [3, 16] was “almost as a full agonist”. For the same molecule, the EC50 ([4]; ACh 1280 uM reference) was 83 ± 9.05 µM, the “agonist character at nAChR alpha3alpha5beta4” value [4, 16] was “almost as a full agonist” and the “current evoked at 300 uM, percent of the maximal ACh-evoked current, alpha7” value (“current evoked at 300 uM, percent” for short) [5, 16] was 25%. The “current evoked at 300 uM, percent” value ([5]; mono-citrate) was 25%, the “agonist character at nAChR alpha7” value [5, 16] was “poor agonist” and the “agonist character at nAChR alpha7” value ([5]; mono-citrate) was “weak partial agonist”. The “agonist character at nAChR alpha3beta4” value [6, 16] was “almost as a full agonist”.
For `C(=C\[C@H]1CCNC1)/c1cncnc1` [Compound 1, (R)-5-((E)-2-pyrrolidin-3-ylvinyl)pyrimidine], the “agonist character at nAChR alpha4beta2” value [2] was “full agonist”, the “AUC % Extrap, Max” value ([7]; Day 29, N=7) was 41.1% and the “AUC % Extrap, Mean” value ([7]; Day 29, N=7) was 21.3%. For the same molecule, the “AUC % Extrap, Median” value ([7]; Day 29, N=7) was 23.3%, the “AUC % Extrap, Min” value ([7]; Day 29, N=7) was 3.69% and 3.67% and the “detection in plasma ten minutes after administration” value ([7]; Day 29, 7 subjects) was “detected in plasma from all subjects”. For the same molecule, the “fraction cleared from systemic circulation before the next administration” value ([7]; if administered every 12 hours (4 half-lives), from maximum half-life 2.83 h) was over 94%, the “agonist character at nAChR alpha4alpha6beta2” value [3] was “full agonist” and the “agonist character at nAChR alpha3alpha5beta4” value [4] was “full agonist”. For the same molecule, the “agonist character at nAChR alpha7” value [5] was “full agonist; also recorded: weak partial agonist”, the “agonist character at nAChR alpha3beta2” value [8] was “partial agonist” and the “agonist character at nAChR alpha3beta4” value [6] was “full agonist”.
In the case of `[Cl][Cu][Cl]` [copper chloride], the “cellular viability at 72 hours post-drug exposure” value (from here on “cellular viability”) ([9]; copper chloride concentrations of less than 1 uM) is reported as “no significant impact on cellular viability”, the “cellular viability” value ([9]; exposures greater than 1 uM copper chloride) is reported as “Some cellular toxicity” and the “percentage of Caco-2 cells infected with SARS-CoV-2, concentration dependence” value [10] is reported as “dose-dependent decrease”.
In the case of “varenicline tartrate [reference compound]”, the “effect … alpha4beta2” value [2] is reported as “major inhibition of the subsequent ACh-evoked current”, the “agonist character at nAChR alpha4beta2” value [2] is reported as “partial agonist” and the “agonist character at nAChR alpha4beta2” value ([2]; listed as Varenicline tartrate) is reported as “very poor agonist”. The “EC50 at nAChR alpha4beta2” value [2, 17] was “low micromolar range”, the “cellular viability” value ([9]; even at 100 uM varenicline tartrate) was “no significant impact on cellular viability” and the “inhibition of ACh-evoked current on sustained exposure, alpha3beta4” value [11] was “very modest effect; also recorded: no significant inhibition”. For the same molecule, the “current evoked by sustained exposure, alpha3beta4” value [12] was “larger current amplitude; also recorded: rather large response”, the “agonist character at nAChR alpha3alpha5beta4” value [4] was “partial agonist” and the “EC50 at nAChR alpha3alpha5beta4” value [4, 17] was “low micromolar range”. The “infection rate of the cells without copper chloride” value ([10]; 0.1 uM and 0.5 uM varenicline tartrate, 24 hours, MOI 3, normalized to untreated (FIG. 3)) was about 100%, the “percentage of Caco-2 cells infected with SARS-CoV-2, concentration dependence” value [10] was “dose-dependent decrease” and the “agonist character at nAChR alpha3beta4” value [6] was “partial agonist”. The “EC50 at nAChR alpha3beta4” value [6, 17] was “low micromolar range”.
In the case of `C(=C\[C@H]1CCNC1)/c1cncnc1` [compound 1 hemi-galactarate dihydrate, (R)-5-((E)-2-pyrrolidin-3-ylvinyl)pyrimidine hemigalactarate dihydrate], the “effect … alpha4beta2” value ([2]; dihydrate) is reported as “enhanced the subsequent ACh-evoked currents”, the “agonist character at nAChR alpha4beta2” value [2, 18] is reported as “more potent agonist than ACh” and the “evoked currents larger than the maximal ACh responses, alpha4beta2” value ([2]; relative to maximal ACh response) is reported as “about 2 fold”. For the same molecule, the “inhibition of ACh-evoked current on sustained exposure, alpha3beta4” value ([11]; dihydrate) was “insensitive; also recorded: no significant inhibition”, the EC50 ([4]; ACh 1280 uM reference) was 32.1 ± 2.16 µM and the “agonist character at nAChR alpha3alpha5beta4” value [4, 18] was “almost as a full agonist”. The “current evoked, percent of the maximal ACh-evoked currents, alpha3alpha5beta4” value ([4]; maximal response) was “about 94%”, the “inhibition of ACh-evoked current on sustained exposure, alpha7” value [13] was “insensitive; also recorded: no significant inhibition” and the “current evoked at 300 uM, percent” value ([5]; dihydrate) was 24%. For the same molecule, the “agonist character at nAChR alpha7” value ([5]; dihydrate) was “poor agonist”, the “agonist character at nAChR alpha7” value [5, 18] was “more potent agonist than ACh” and the “inhibition of ACh-evoked current on sustained exposure, alpha4beta2” value [14] was “marked inhibition; also recorded: inhibits in a concentration-dependent manner”. The “agonist character at nAChR alpha3beta4” value [6, 18] was “almost as a full agonist”, the “current evoked, percent of the maximal ACh-evoked currents, alpha3beta4” value ([6]; maximal response) was “about 94%” and the “inhibition of ACh-evoked current on sustained exposure, alpha3alpha5beta4” value [15] was “marked inhibition; also recorded: inhibits in a concentration-dependent manner”.
